Data reported in US8999986B2, “Pyrrolo [2,3—D] pyrazin—7—ylpyrimidine compounds” (Merck Patent GmbH, priority 2009, dated 2015).
Read-outs that look alike come from different tables or passages of the source.

Key:
[1] = test system: phospho-T308-PKB in PC3 cells; experiment: Cellular testing of PDK1 kinase inhibitors in PC3 cells (Luminex, phospho-T308-PKB); format: cell-based; details: Homo sapiens
Description: Method for the Cellular Testing of PDK1 Kinase Inhibitors in PC3 Cells.
The cellular assay for the determination of the PDK1 kinase activity is carried out as a Luminex assay in the 96-well format. PC3 cells are sown at 20,000 cells per well in 100 μl of medium (45% of […]/45% of Ham's F12/10% of FCS) and incubated on the following day for 30 min with a serial dilution of the test substance (7 concentrations) under serum-free conditions. The cells are subsequently lysed using 90 μl of lysis buffer (20 mM tris/HCl pH 8.0, 150 mM NaCl, 1% of NP40, 10% of glycerol, 1% of phosphatase inhibitor I, 1% of phosphatase inhibitor II, 0.1% of protease inhibitor cocktail 111, 0.01% of benzonase) per well, and the lysates are separated off from insoluble cell constituents by means of centrifugation through a 96-well filter plate (0.65 μm). The lysates are incubated overnight at 4° C. with shaking with Luminex beads to which an anti-total PKB antibody is coupled. The detection is carried out on the following day by addition of a phospho-T308-PKB antibody and a species-specific […] secondary antibody. The detection of phospho-T308-PKB is carried out by measurement in a Luminex100 instrument by determination of 100 events per cavity in a measurement time of 60 sec. As pharmacological blank, the signals obtained from cells which have been treated with 10 μM staurosporin are subtracted from all other batches. The control value used for maximum phosphorylation of PKB on T308 are the signals from cells which have only been treated with the solvent (0.3% of DMSO). The values of the batches treated with test substance are calculated therefrom as percentage of control, and IC50 values are determined by means of RS1.

PDK1 = molecular target: T1, PDK1 (Homo sapiens, UniProt O15530); experiment: Test for the inhibition of PDK1 (flashplate, 33P-ATP); format: biochemical; details: His6-PDK1(1-50) 3.4 nM, 4 μM ATP, 30° C., 60 min
T1 construct: His6 (N)
T1 sequence (O15530 51-556 limits assumed): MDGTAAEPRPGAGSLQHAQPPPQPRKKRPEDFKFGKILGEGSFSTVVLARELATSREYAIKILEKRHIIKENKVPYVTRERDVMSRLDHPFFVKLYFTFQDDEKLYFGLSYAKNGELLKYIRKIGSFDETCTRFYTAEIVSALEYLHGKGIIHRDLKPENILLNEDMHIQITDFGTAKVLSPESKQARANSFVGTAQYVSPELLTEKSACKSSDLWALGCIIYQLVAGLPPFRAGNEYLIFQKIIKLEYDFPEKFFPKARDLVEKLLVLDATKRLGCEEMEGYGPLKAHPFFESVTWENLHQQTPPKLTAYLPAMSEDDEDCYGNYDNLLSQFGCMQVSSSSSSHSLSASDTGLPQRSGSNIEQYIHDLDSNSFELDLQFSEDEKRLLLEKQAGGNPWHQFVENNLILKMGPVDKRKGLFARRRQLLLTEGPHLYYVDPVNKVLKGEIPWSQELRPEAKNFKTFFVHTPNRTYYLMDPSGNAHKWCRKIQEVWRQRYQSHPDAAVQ
Description: The experimental batches are carried out in a flashplate system with 384 wells/microtitration plate.
In each case, the PDK1 sample His6-PDK1(1-50)(3.4 nM), the PDK1 substrate biotin-bA-bA-[…] (400 nM), 4 μM ATP (with 0.2 μCi of ^33P-ATP/well) and the test substance in 50 μl of conventional experimental solution per well are incubated at 30° C. for 60 min. The test substances are employed in corresponding concentrations (if desired in a dilution series). The control is carried out without test substance. The reaction is stopped using standard methods and washed. The activity of the kinase is measured via the incorporated radioactivity in top count. In order to determine the non-specific kinase reaction (blank value), the experimental batches are carried out in the presence of 100 nM staurosporin.
The radioactivity (decompositions per minute) of the blank value (no use of test substance in the presence of staurosporin) is subtracted from all other radioactivity values. The controls (kinase activity without test substance) are set equal to 100 percent and all other radioactivity values (after subtracting the blank value) are expressed set in relation thereto (for example in % of the control).
[formula] IC50 values (50% inhibition) are determined with the aid of statistics pro-grammes, such as, for example, RS1.

[2] = PC-3, cellular assay, cell line not named, read-out: IC50 [cell]

In the case of `CCC(O)(c1cccc(F)c1)c1cc(-c2c[nH]c3ncc(-c4cnn(C)c4)nc23)nc(N)n1` (stereo not drawn) [A25, 1-{2-Amino-6-[2-(1-methyl-1H-pyrazol-4-yl)-5H-pyrrolo[2,3-b]pyrazin-7-yl]-pyrimidin-4-yl}-1-(3-fluorophenyl)propan-1-ol], the IC50 [1, 2] is reported as 0.11 µM and the IC50 (PDK1) is reported as 0.036 µM.
Work on `COCOC(C)(c1cc(-c2c[nH]c3ncc(-c4cnn(C)c4)nc23)nc(N)n1)c1ccccc1F` (stereo not drawn) [A7, 4-[1-(2-Fluorophenyl)-1-methoxymethoxyethyl]-6-[2-(1-methyl-1H-pyrazol-4-yl)-5H-pyrrolo[2,3-b]pyrazin-7-yl]pyrimidin-2-ylamine] yielded an IC50 [1, 2] of 0.26 µM and an IC50 (PDK1) of 0.077 µM.
With `CCC(OCOC)(c1cc(-c2c[nH]c3ncc(-c4cnn(C)c4)nc23)nc(N)n1)c1ccncc1F` (stereo not drawn) [A27, 4-[1-(3-Fluoropyridin-4-yl)-1-methoxymethoxypropyl]-6-[2-(1-methyl-1H-pyrazol-4-yl)-5H-pyrrolo[2,3-b]pyrazin-7-yl]pyrimidin-2-ylamine] the IC50 [1, 2] was 0.6 µM and the IC50 (PDK1) was 0.09 µM.
Compound `Cn1cc(-c2cnc3[nH]cc(-c4cc(C(C)(O)c5ccccc5F)nc(N)n4)c3n2)cn1` (stereo not drawn) [A6, 1-{2-Amino-6-[2-(1-methyl-1H-pyrazol-4-yl)-5H-pyrrolo[2,3-b]pyrazin-7-yl]-pyrimidin-4-yl}-1-(2-fluorophenyl)ethanol] has an IC50 [1, 2] of 0.19 µM and an IC50 (PDK1) of 0.031 µM.
Compound `Cn1cc(-c2cnc3[nH]cc(-c4cc([C@](C)(O)c5ccccc5F)nc(N)n4)c3n2)cn1` (single isomer, unassigned) [A9] has an IC50 [1, 2] of 0.15 µM and an IC50 (PDK1) of 0.047 µM.
In the case of `CC[C@@](O)(c1cc(-c2c[nH]c3ncc(-c4cnn(C)c4)nc23)nc(N)n1)c1ccccc1F` (single isomer, unassigned) [A31], the IC50 [1, 2] is reported as 0.0048 µM and the IC50 (PDK1) is reported as 0.024 µM.
`Cn1cc(-c2cnc3[nH]cc(-c4cc(C(C)(O)c5ccccc5)nc(N)n4)c3n2)cn1` (stereo not drawn) [A4, 1-{2-Amino-6-[2-(1-methyl-1H-pyrazol-4-yl)-5H-pyrrolo[2,3-b]pyrazin-7-yl]-pyrimidin-4-yl}-1-phenylethanol] gave an IC50 [1, 2] of 0.57 µM and an IC50 (PDK1) of 0.055 µM.
Compound `CCC(O)(c1ccncc1)c1cc(-c2c[nH]c3ncc(-c4cnn(C)c4)nc23)nc(N)n1` (stereo not drawn) [A28, 1-{2-Amino-6-[2-(1-methyl-1H-pyrazol-4-yl)-5H-pyrrolo[2,3-b]pyrazin-7-yl]-pyrimidin-4-yl}-1-pyridin-4-ylpropan-1-ol] has an IC50 [1, 2] of 0.16 µM and an IC50 (PDK1) of 0.017 µM.
`Cn1cc(-c2cnc3[nH]cc(-c4cc([C@@](C)(O)c5ccccc5F)nc(N)n4)c3n2)cn1` (single isomer, unassigned) [A8] showed an IC50 [1, 2] of 0.57 µM and an IC50 (PDK1) of 0.043 µM.
Work on `CC(C)n1cc(-c2cnc3[nH]cc(-c4cc(C(C)(O)c5ccccc5F)nc(N)n4)c3n2)cn1` (stereo not drawn) [A33, 1-{2-Amino-6-[2-(1-isopropyl-1H-pyrazol-4-yl)-5H-pyrrolo[2,3-b]pyrazin-7-yl]-pyrimidin-4-yl}-1-(2-fluorophenyl)ethanol] yielded an IC50 [1, 2] of 0.25 µM and an IC50 (PDK1) of 0.35 µM.
With `CCC(O)(c1cc(-c2c[nH]c3ncc(-c4cnn(C)c4)nc23)nc(N)n1)c1ccncc1F` (stereo not drawn) [A26, 1-{2-Amino-6-[2-(1-methyl-1H-pyrazol-4-yl)-5H-pyrrolo[2,3-b]pyrazin-7-yl]-pyrimidin-4-yl}-1-(3-fluoropyridin-4-yl)propan-1-ol] the IC50 [1, 2] was 0.58 µM and the IC50 (PDK1) was 0.044 µM.
Work on `CC[C@](O)(c1cccc(F)c1)c1cc(-c2c[nH]c3ncc(-c4cnn(C)c4)nc23)nc(N)n1` (single isomer, unassigned) [A29] yielded an IC50 [1, 2] of 0.0022 µM and an IC50 (PDK1) of 0.09 µM.
Compound `CC[C@](O)(c1cc(-c2c[nH]c3ncc(-c4cnn(C)c4)nc23)nc(N)n1)c1ccccc1F` (single isomer, unassigned) [A32] has an IC50 [1, 2] of 0.0029 µM and an IC50 (PDK1) of 0.095 µM.
For `COCOC(C)(c1ccccc1)c1cc(-c2c[nH]c3ncc(-c4cnn(C)c4)nc23)nc(N)n1` (stereo not drawn) [A5, 4-(1-Methoxymethoxy-1-phenylethyl)-6-[2-(1-methyl-1H-pyrazol-4-yl)-5H-pyrrolo[2,3-b]pyrazin-7-yl]pyrimidin-2-ylamine], the IC50 [1, 2] was 0.42 µM and the IC50 (PDK1) was 0.09 µM.
With `COCOC(C)(c1cccc(F)c1)c1cc(-c2c[nH]c3ncc(-c4cnn(C)c4)nc23)nc(N)n1` (stereo not drawn) [A2, 4-[1-(3-fluorophenyl)-1-methoxymethoxyethyl]-6-[2-(1-methyl-1H-pyrazol-4-yl)-5H-pyrrolo[2,3-b]pyrazin-7-yl]pyrimidin-2-ylamine] the IC50 ([1]; PC-3, 0.5 h, PC3 cells, 30 min with test substance, serum-free, read-out: IC50 [P-PKB T308]) was 0.81 µM and the IC50 (PDK1) was 0.12 µM.
`Cn1cc(-c2cnc3[nH]cc(-c4cc(C(C)(O)c5cccc(F)c5)nc(N)n4)c3n2)cn1` (stereo not drawn) [A3, 1-{2-amino-6-[2-(1-methyl-1H-pyrazol-4-yl)-5H-pyrrolo[2,3-b]pyrazin-7-yl]-pyrimidin-4-yl}-1-(3-fluorophenyl)ethanol] was tested, and the IC50 [1, 2] was 0.53 µM and the IC50 (PDK1) was 0.071 µM.
Work on `CCC(O)(c1cc(-c2c[nH]c3ncc(-c4cnn(C)c4)nc23)nc(N)n1)c1ccccc1F` (stereo not drawn) [A24, 1-{2-Amino-6-[2-(1-methyl-1H-pyrazol-4-yl)-5H-pyrrolo[2,3-b]pyrazin-7-yl]-pyrimidin-4-yl}-1-(2-fluorophenyl)propan-1-ol] yielded an IC50 [1, 2] of 0.092 µM and an IC50 (PDK1) of 0.054 µM.
`CC[C@@](O)(c1cccc(F)c1)c1cc(-c2c[nH]c3ncc(-c4cnn(C)c4)nc23)nc(N)n1` (single isomer, unassigned) [A30] gave an IC50 [1, 2] of 0.021 µM and an IC50 (PDK1) of 0.018 µM.
